{"source": "patent US20080193402A1", "about": "“Depilatory Compositions” (priority 2005, published 2008)", "assay": "2AET storage stability at 40° C. in different packages", "type": "physicochemical", "protocol": "The single phase depilatory was then packaged into two separate containers. The first was an aluminum can with a bag-on-valve system, while the second was a standard high density polyethylene bottle.\nThe 2AET levels were evaluated at initial, 1 month and 3 months after storage at 40° C. to determine stability profiles."}
{"smiles": "NCCS", "note": "[Example 2AET, 2-aminoethanethiol]", "values": [{"measurement": "2AET level", "setting": "Example 13 single phase depilatory in HDPE (full), 1 month/40° C.", "result": 6.7, "unit": "%"}, {"measurement": "2AET level", "setting": "Example 13 single phase depilatory in HDPE (full), 3 months/40° C.", "result": 6.6, "unit": "%"}, {"measurement": "2AET level", "setting": "Example 13 single phase depilatory in HDPE (full), initial", "result": 7.2, "unit": "%"}, {"measurement": "2AET level", "setting": "Example 13 single phase depilatory in HDPE (half), 1 month/40° C.", "result": 6.3, "unit": "%"}, {"measurement": "2AET level", "setting": "Example 13 single phase depilatory in HDPE (half), 3 months/40° C.", "result": 5.9, "unit": "%"}, {"measurement": "2AET level", "setting": "Example 13 single phase depilatory in HDPE (half), initial", "result": 7.1, "unit": "%"}, {"measurement": "2AET level", "setting": "Example 13 single phase depilatory in aluminum can with bag-on-valve, 1 month/40° C.", "result": 7.3, "unit": "%"}, {"measurement": "2AET level", "setting": "Example 13 single phase depilatory in aluminum can with bag-on-valve, 3 months/40° C.", "result": 7.3, "unit": "%"}, {"measurement": "2AET level", "setting": "Example 13 single phase depilatory in aluminum can with bag-on-valve, initial", "result": 7.3, "unit": "%"}]}
